# Measured values: patent US20250230193A1, “CYCLIC COMPOUND HAVING SELECTIVE KRAS INHIBITORY EFFECT ON HRAS AND NRAS” (CHUGAI SEIYAKU KABUSHIKI KAISHA, priority 2022, published 2025)
# Where a SMILES comes first, the peptide text is derived from it. Bridges are numbered along the chain shown (N, C = ends). [ ]: non-standard residue; d: D form. hPhe(3-Cl-4-CF3) = N[C@@H](CCc1ccc(C(F)(F)F)c(Cl)c1)C(=O)O; NPrPhe(4-CF3) = CCCN[C@@H](Cc1ccc(C(F)(F)F)cc1)C(=O)O; NMeGly(cPent) = CN[C@H](C(=O)O)C1CCCC1; NMeL = CN[C@@H](CC(C)C)C(=O)O; Aze = O=C(O)[C@@H]1CCN1; Ac4c = NC1(C(=O)O)CCC1; Sar = CNCC(=O)O
# Assays:
# [1] = biological target: GDP-bound HRAS wild-type protein (Homo sapiens, UniProt P01112); experiment: Binding to HRAS by surface plasmon resonance (SPR), Single Cycle Kinetics
# Chain of GDP-bound HRAS wild-type protein (P01112 whole entry): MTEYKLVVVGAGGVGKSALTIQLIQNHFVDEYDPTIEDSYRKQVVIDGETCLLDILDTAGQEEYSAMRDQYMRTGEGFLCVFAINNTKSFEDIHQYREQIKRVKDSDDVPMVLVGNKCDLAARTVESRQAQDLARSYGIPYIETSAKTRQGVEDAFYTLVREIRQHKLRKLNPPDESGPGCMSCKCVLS
# [2] = biological target: GDP-bound NRAS wild-type protein (Homo sapiens, UniProt P01111); experiment: Binding to NRAS by surface plasmon resonance (SPR), Single Cycle Kinetics
# Chain of GDP-bound NRAS wild-type protein (P01111 whole entry): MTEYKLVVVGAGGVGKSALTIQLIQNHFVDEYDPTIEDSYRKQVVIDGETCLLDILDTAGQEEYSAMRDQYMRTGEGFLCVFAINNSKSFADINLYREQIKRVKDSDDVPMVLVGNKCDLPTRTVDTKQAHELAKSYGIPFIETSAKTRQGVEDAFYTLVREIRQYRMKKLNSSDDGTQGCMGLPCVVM
# [3] = KD ratio, GDP-bound HRAS wild-type vs GDP-bound KRAS wild-type, SPR
# [4] = KD ratio, GDP-bound NRAS wild-type vs GDP-bound KRAS wild-type, SPR
smiles,measurement,setting,value
CCO[C@@H]1C[C@H]2C(=O)NC3(CC(C)(C)C3)C(=O)N(C)[C@@H](C(CC)CC)C(=O)N3CCC[C@@H]3CC(=O)N(C)[C@@H](CC3CC3)C(=O)N[C@@H]([C@@H](C)CC)C(=O)N(C)CC(=O)N(C)[C@H]3C/C=C\CCN(C3=O)[C@@H](Cc3ccc(C(F)(F)F)cc3)C(=O)N(C)CC(=O)N[C@@H](CCc3cc(F)c(C(F)(F)F)c(F)c3)C(=O)N2C1 [PP1610],HRAS/KRAS (ratio of KD value for HRAS to KD value for KRAS),[1]; [3],A (a compound having 10 or more and less than 20 is denoted as A)
same,NRAS/KRAS (ratio of KD value for NRAS to KD value for KRAS),[2]; [4],A (a compound having 10 or more and less than 20 is denoted as A)
CCO[C@@H]1C[C@H]2C(=O)NC3(CCC3)C(=O)N(C)[C@@H](C3CCCC3)C(=O)N(C)[C@H](C(=O)N3CCOCC3)CC(=O)N(C)[C@@H](CC3CCC3)C(=O)N[C@@H]([C@@H](C)CC)C(=O)N(C)CC(=O)N(C)[C@H]3CCCCN(C3=O)[C@@H](Cc3ccc(C(F)(F)F)cc3)C(=O)N(C)CC(=O)N[C@@H](CCc3cc(F)c(C(F)(F)F)c(F)c3)C(=O)N2C1 [PP0713],HRAS/KRAS (ratio of KD value with respect to GDP-bound HRAS wild-type protein to KD value with respect to KRAS),"[1]; KD ratio HRAS/KRAS, SPR",B (a compound having 3 or more and less than 10 is denoted as B)
same,NRAS/KRAS (ratio of KD value with respect to GDP-bound NRAS wild-type protein to KD value with respect to KRAS),"[2]; KD ratio NRAS/KRAS, SPR",C (A compound having a KD ratio of 0.1 or more and less than 3 is denoted as C)
CCO[C@@H]1C[C@H]2C(=O)NC3(CCCC3)C(=O)N(C)[C@@H](C3CCCC3)C(=O)N(C)[C@H](C(=O)N(C)C)CC(=O)N(C)[C@@H](CC)C(=O)N[C@@H]([C@@H](C)CC)C(=O)N(C)CC(=O)N(C)[C@H]3CC(C)=C(C)CN(C3=O)[C@@H](Cc3ccc(C(F)(F)F)cc3)C(=O)N(C)CC(=O)N[C@@H](CCc3cc(F)c(C(F)(F)F)c(F)c3)C(=O)N2C1 [PP1050],HRAS/KRAS (ratio of KD value with respect to HRAS to KD value with respect to KRAS),[1]; [3],C (A compound having a KD ratio of 0.1 or more and less than 3 is denoted as C)
same,NRAS/KRAS (ratio of KD value with respect to NRAS to KD value with respect to KRAS),[2]; [4],C (A compound having a KD ratio of 0.1 or more and less than 3 is denoted as C)
CCCN1C(=O)CN(C)C(=O)[C@@H]2CCN2C(=O)[C@H]([C@@H](C)CC)NC(=O)[C@H](CC(C)C)N(C)C(=O)C[C@@H](C(=O)N(C)C)NC(=O)[C@H](C2CCCC2)N(C)C(=O)C2(CCC2)NC(=O)[C@@H]2CCCN2C(=O)[C@H](CCc2ccc(C(F)(F)F)c(Cl)c2)NC(=O)CN(C)C(=O)[C@@H]1Cc1ccc(C(F)(F)F)cc1 [PP0374] ([NMeL]I[Aze][Sar][NPrPhe(4-CF3)][Sar][hPhe(3-Cl-4-CF3)]P[Ac4c][NMeGly(cPent)]D-NMe2; lactam N-11),HRAS/KRAS (ratio of KD for GDP-bound HRAS wild-type to KD for KRAS),"[1]; KD ratio HRAS/KRAS, SPR",B (a compound having 3 or more and less than 10 is denoted as B)
same,NRAS/KRAS (ratio of KD for GDP-bound NRAS wild-type to KD for KRAS),"[2]; KD ratio NRAS/KRAS, SPR",B (a compound having 3 or more and less than 10 is denoted as B)
CCO[C@@H]1C[C@H]2C(=O)NC3(CCCC3)C(=O)N(C)[C@@H](C3CCCC3)C(=O)N(C)[C@H](C(=O)N(C)C)CC(=O)N(C)[C@@H](CC(C)C)C(=O)N[C@@H]([C@@H](C)CC)C(=O)N(C)CC(=O)N(C)[C@H]3CCCCN(C3=O)[C@@H](Cc3ccc(C(F)(F)F)cc3)C(=O)N(C)CC(=O)N[C@@H](CCc3cc(F)c(C(F)(F)F)c(F)c3)C(=O)N2C1 [PP0579],HRAS/KRAS (ratio of KD value with respect to GDP-bound HRAS wild-type protein to KD value with respect to KRAS),"[1]; KD ratio HRAS/KRAS, SPR",B (a compound having 3 or more and less than 10 is denoted as B)
same,NRAS/KRAS (ratio of KD value with respect to GDP-bound NRAS wild-type protein to KD value with respect to KRAS),"[2]; KD ratio NRAS/KRAS, SPR",C (A compound having a KD ratio of 0.1 or more and less than 3 is denoted as C)
CCCOC[C@H]1C(=O)N[C@@H]([C@@H](C)CC)C(=O)N(C)CC(=O)N(C)[C@H]2C/C=C\CCN(C2=O)[C@@H](Cc2ccc(C(F)(F)F)cc2)C(=O)N(C)CC(=O)N[C@@H](CCc2cc(F)c(C(F)(F)F)c(F)c2)C(=O)N2C[C@H](OCC)C[C@H]2C(=O)NC2(CCC2)C(=O)N(C)[C@@H](C2CCCC2)C(=O)N(C)[C@H](C(=O)N(C)CCC)CC(=O)N1C [PP1668],HRAS/KRAS (ratio of KD value for HRAS to KD value for KRAS),[1]; [3],A (a compound having 10 or more and less than 20 is denoted as A)
same,NRAS/KRAS (ratio of KD value for NRAS to KD value for KRAS),[2]; [4],A (a compound having 10 or more and less than 20 is denoted as A)
CC[C@H](C)[C@@H]1NC(=O)[C@H](CC2CCC2)N(C)C(=O)C[C@@H](C(=O)N(C)C)N(C)C(=O)[C@H](C2CCCC2)N(C)C(=O)C2(CC(C)(C)C2)NC(=O)[C@@H]2CC(F)(F)CN2C(=O)[C@H](CCc2cc(F)c(C(F)(F)F)c(F)c2)NC(=O)CN(C)C(=O)[C@H](Cc2ccc(C(F)(F)F)cc2)N2CC/C=C\C[C@@H](C2=O)N(C)C(=O)CN(C)C1=O [PP1716],HRAS/KRAS (ratio of KD value for HRAS to KD value for KRAS),[1]; [3],A (a compound having 10 or more and less than 20 is denoted as A)
same,NRAS/KRAS (ratio of KD value for NRAS to KD value for KRAS),[2]; [4],AA (a compound having 20 or more is denoted as AA)
CCC[C@H]1C(=O)N[C@@H](CC(C)C)C(=O)N(CC)CC(=O)N(C)[C@H]2C/C=C\CCN(C2=O)[C@@H](Cc2ccc(C)cc2)C(=O)N(C)CC(=O)N[C@@H](CCc2ccc(C(F)(F)F)c(OC)c2)C(=O)N2C[C@H](OCC)C[C@H]2C(=O)NC2(CCC2)C(=O)N(C)[C@@H](C2CCCC2)C(=O)N(C)[C@H](C(=O)N(C)C)CC(=O)N1C [PP2540],HRAS/KRAS (ratio of KD value with respect to GDP-bound HRAS wild-type protein to KD value with respect to KRAS),"[1]; KD ratio HRAS/KRAS, class symbols",B (a compound having 3 or more and less than 10 is denoted as B)
same,NRAS/KRAS (ratio of KD value with respect to GDP-bound NRAS wild-type protein to KD value with respect to KRAS),"[2]; KD ratio NRAS/KRAS, class symbols",A (a compound having 10 or more and less than 20 is denoted as A)
